Laboratory results: ChEMBL document CHEMBL1201862, “PubChem BioAssay data set” (2004)
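A five-concentration, 48-hour dose response in 96-well plates underlies each endpoint, interpolated linearly between surrounding concentrations. At the GI50, growth is halved.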 Calls of active or inactive are those of the source. No stated cut-off is given here; in the data, active = GI50 up to about 1.1 µM and inactive = higher.

What was measured:
Assay in all cases: DTP human tumour cell line panel, 48 h
HCT-116 = test system: HCT-116
MCF7 = test system: MCF7
SK-MEL-5 = test system: SK-MEL-5
IGROV-1 = test system: IGROV-1
SN12C = test system: SN12C
NCI-H522 = test system: NCI-H522
OVCAR-8 = test system: OVCAR-8
HOP-62 = test system: HOP-62
OVCAR-5 = test system: OVCAR-5
OVCAR-4 = test system: OVCAR-4
SNB-75 = test system: SNB-75
A498 = test system: A498
OVCAR-3 = test system: OVCAR-3
CAKI-1 = test system: CAKI-1
EKVX = test system: EKVX
UACC-62 = test system: UACC-62
SK-MEL-2 = test system: SK-MEL-2
HCT-15 = test system: HCT-15
RXF 393 = test system: RXF 393
HOP-92 = test system: HOP-92

Row | SMILES | GI50 (HCT-116) | GI50 (MCF7) | GI50 (SK-MEL-5) | GI50 (IGROV-1) | GI50 (SN12C) | GI50 (NCI-H522) | GI50 (OVCAR-8) | GI50 (HOP-62) | GI50 (OVCAR-5) | GI50 (OVCAR-4) | GI50 (SNB-75) | GI50 (A498) | GI50 (OVCAR-3) | GI50 (CAKI-1) | GI50 (EKVX) | GI50 (UACC-62) | GI50 (SK-MEL-2) | GI50 (HCT-15) [µM] | GI50 (RXF 393) | GI50 (HOP-92)
1 | Cc1ncc2c(n1)CCC1=C2OS(=O)(=O)CC1N(C)C (centres undefined) | 98.2 µM (inactive) | > 100 µM (inactive) | 70 µM (inactive) | > 100 µM (inactive) | > 100 µM (inactive) | 31.8 µM (inactive) | > 100 µM (inactive) | 76.6 µM (inactive) | > 100 µM (inactive) | > 100 µM (inactive) | > 100 µM (inactive) | 58.2 µM (inactive) | > 100 µM (inactive) | 69.5 µM (inactive) | > 100 µM (inactive) | 96.6 µM (inactive) |  |  |  | 
2 | N/C(=N\c1c([N+](=O)[O-])cnc2ccccc12)N1CCOCC1 | > 100 µM (inactive) | > 100 µM (inactive) | > 100 µM (inactive) | > 100 µM (inactive) | > 100 µM (inactive) | > 100 µM (inactive) | > 100 µM (inactive) | > 100 µM (inactive) | > 100 µM (inactive) | > 100 µM (inactive) | > 100 µM (inactive) | > 100 µM (inactive) | > 100 µM (inactive) | > 100 µM (inactive) | > 100 µM (inactive) | > 100 µM (inactive) | > 100 µM (inactive) | > 100 |  | 
3 | COC(=O)c1s/c(=N\C(=S)N(C)C)n(-c2ccccc2)c1C(=O)OC | > 100 µM (inactive) |  | > 100 µM (inactive) | > 100 µM (inactive) | > 100 µM (inactive) | > 100 µM (inactive) | > 100 µM (inactive) | > 100 µM (inactive) | > 100 µM (inactive) | 94 µM (inactive) | 52.2 µM (inactive) | > 100 µM (inactive) | > 100 µM (inactive) | > 100 µM (inactive) | > 100 µM (inactive) | > 100 µM (inactive) | > 100 µM (inactive) | > 100 | > 100 µM (inactive) | > 100 µM (inactive)
4 | C/C(=N/NC(=O)c1ccccc1S(N)(=O)=O)C(CN1CCCCC1)C(C1=C(O)C2C=CC=CC2OC1=O)c1ccccc1 (centres undefined) | > 100 µM (inactive) |  | 56.9 µM (inactive) | > 100 µM (inactive) | 78.7 µM (inactive) | 52.7 µM (inactive) | > 100 µM (inactive) | > 100 µM (inactive) | > 100 µM (inactive) | 67.1 µM (inactive) | > 100 µM (inactive) | > 100 µM (inactive) | 41.6 µM (inactive) | > 100 µM (inactive) | > 100 µM (inactive) | 82.6 µM (inactive) | 59.2 µM (inactive) | 49.9 | 28.4 µM (inactive) | 14 µM (inactive)
5 | COc1ccc(/C=C(\C2=NC(=O)CS2)c2nc3ccccc3[nH]2)cc1 | 85.1 µM (inactive) |  | 37.6 µM (inactive) | 52.1 µM (inactive) | 52.4 µM (inactive) | 16.5 µM (inactive) | 46.8 µM (inactive) | 32.1 µM (inactive) | 41.8 µM (inactive) | > 100 µM (inactive) | 28.1 µM (inactive) | 75.9 µM (inactive) | 22 µM (inactive) | > 100 µM (inactive) | 38.4 µM (inactive) | > 100 µM (inactive) | 24 µM (inactive) | 83.8 | 3.13 µM (inactive) | 80.2 µM (inactive)
6 | O=C(Nc1ccn(C2CC(O)C(COC(c3ccccc3)(c3ccccc3)c3ccccc3)O2)c(=O)n1)c1ccccc1 (centres undefined) | 2 µM (inactive) | 2.43 µM (inactive) | 2.33 µM (inactive) | 2.9 µM (inactive) | 1.89 µM (inactive) | 3.6 µM (inactive) | 1.97 µM (inactive) | 5.62 µM (inactive) | 1.87 µM (inactive) | 3.24 µM (inactive) | 4.66 µM (inactive) |  | 2.03 µM (inactive) | 6.32 µM (inactive) | 4.27 µM (inactive) | 5.98 µM (inactive) | 2.82 µM (inactive) | 2.59 | 2.7 µM (inactive) | 1.57 µM (inactive)
7 | O=c1cnnc2sc(=S)[nH]n12 | > 100 µM (inactive) | 14.7 µM (inactive) | 20.1 µM (inactive) | 24 µM (inactive) |  | 8.45 µM (inactive) | 16.4 µM (inactive) | 2.61 µM (inactive) | > 100 µM (inactive) | 16.7 µM (inactive) |  | > 100 µM (inactive) | 32.4 µM (inactive) | 21.9 µM (inactive) | > 100 µM (inactive) | 18.2 µM (inactive) | > 100 µM (inactive) | 19.6 |  | 
8 | COc1cc(C2C(C(=O)Nc3ccccc3C)=C(C)NC(C)=C2C(=O)Nc2ccccc2C)ccc1O | > 100 µM (inactive) |  | > 100 µM (inactive) | > 100 µM (inactive) | > 100 µM (inactive) | > 100 µM (inactive) | > 100 µM (inactive) | > 100 µM (inactive) | > 100 µM (inactive) | > 100 µM (inactive) | 56.6 µM (inactive) | > 100 µM (inactive) | > 100 µM (inactive) | > 100 µM (inactive) | > 100 µM (inactive) | > 100 µM (inactive) | > 100 µM (inactive) |  | > 100 µM (inactive) | > 100 µM (inactive)
9 | Cc1cc(C)c(S(=O)(=O)N(CCCCCCN)OCCCN)c(C)c1 | 17.5 µM (inactive) | 19.8 µM (inactive) | 19.2 µM (inactive) | 13.9 µM (inactive) | 19.6 µM (inactive) | 13 µM (inactive) | 14 µM (inactive) | 20.9 µM (inactive) | 21.7 µM (inactive) | 20.2 µM (inactive) | 10.3 µM (inactive) |  | 19.9 µM (inactive) |  | 15.3 µM (inactive) | 19.5 µM (inactive) | 20.2 µM (inactive) | 17.7 |  | 15.7 µM (inactive)
10 | Cc1c(N2C(=O)/C(=C/c3ccc(Cl)cc3)N=C2c2ccccc2)c(=O)n(-c2ccccc2)n1C | 32.3 µM (inactive) | 29 µM (inactive) | 17.8 µM (inactive) | 29 µM (inactive) | 34.1 µM (inactive) | 19.8 µM (inactive) | 43.7 µM (inactive) | 81.5 µM (inactive) | 49.2 µM (inactive) | 33.9 µM (inactive) | 22.5 µM (inactive) |  | 27.1 µM (inactive) | 34.6 µM (inactive) | 19.7 µM (inactive) | 21.1 µM (inactive) | 16.7 µM (inactive) | 3.2 | 22.3 µM (inactive) | 18.7 µM (inactive)
11 | CCN(CC)CCNC(=O)c1cc2cc(NC(=O)c3cc4cc(NC(=O)c5cc6cc(N)ccc6[nH]5)ccc4[nH]3)ccc2[nH]1 |  |  | > 100 µM (inactive) | > 100 µM (inactive) | > 100 µM (inactive) | > 100 µM (inactive) | > 100 µM (inactive) | > 100 µM (inactive) | > 100 µM (inactive) | > 100 µM (inactive) | > 100 µM (inactive) | > 100 µM (inactive) | > 100 µM (inactive) | > 100 µM (inactive) | > 100 µM (inactive) | > 100 µM (inactive) | > 100 µM (inactive) | > 100 | > 100 µM (inactive) | > 100 µM (inactive)
12 | COc1ccc(-c2nc(-c3cnccn3)n(Cc3ccccc3)n2)cc1 | > 100 µM (inactive) | > 100 µM (inactive) | > 100 µM (inactive) | > 100 µM (inactive) | > 100 µM (inactive) | > 100 µM (inactive) | > 100 µM (inactive) | > 100 µM (inactive) | > 100 µM (inactive) | > 100 µM (inactive) | 47.9 µM (inactive) |  | > 100 µM (inactive) |  |  | > 100 µM (inactive) |  | > 100 | > 100 µM (inactive) | > 100 µM (inactive)
13 | CN1c2ccccc2N(C(=O)c2ccc([N+](=O)[O-])cc2)C(CC(=O)O)c2cccn21 (centres undefined) |  |  | > 100 µM (inactive) | > 100 µM (inactive) | > 100 µM (inactive) | > 100 µM (inactive) | > 100 µM (inactive) | > 100 µM (inactive) | > 100 µM (inactive) | > 100 µM (inactive) | > 100 µM (inactive) | > 100 µM (inactive) | > 100 µM (inactive) | > 100 µM (inactive) | > 100 µM (inactive) | > 100 µM (inactive) | > 100 µM (inactive) | > 100 | > 100 µM (inactive) | > 100 µM (inactive)
14 | COc1ccc(CC2(O)C3CC4CCC2C4C3)cc1 (centres undefined) |  | 65.6 µM (inactive) | 31.9 µM (inactive) | > 100 µM (inactive) | 77.4 µM (inactive) | 88.3 µM (inactive) | > 100 µM (inactive) | > 100 µM (inactive) | > 100 µM (inactive) | > 100 µM (inactive) | 48.9 µM (inactive) |  | > 100 µM (inactive) | > 100 µM (inactive) | 49.8 µM (inactive) | > 100 µM (inactive) | > 100 µM (inactive) | > 100 |  | 58.5 µM (inactive)
15 | COC(=O)C1OC2(CCCC3CC32)O[C@H]1C(=O)OC (some centres undefined) | > 100 µM (inactive) | > 100 µM (inactive) |  | > 100 µM (inactive) | > 100 µM (inactive) | > 100 µM (inactive) | > 100 µM (inactive) | > 100 µM (inactive) | > 100 µM (inactive) | > 100 µM (inactive) | > 100 µM (inactive) |  | > 100 µM (inactive) | > 100 µM (inactive) | > 100 µM (inactive) | > 100 µM (inactive) | > 100 µM (inactive) | > 100 | > 100 µM (inactive) | 68.7 µM (inactive)
16 | CCOc1cc(C=O)ccc1O [ETHYL VANILLIN] | > 100 µM (inactive) | > 100 µM (inactive) | > 100 µM (inactive) | > 100 µM (inactive) | > 100 µM (inactive) | > 100 µM (inactive) | > 100 µM (inactive) | > 100 µM (inactive) | > 100 µM (inactive) | > 100 µM (inactive) | 95.1 µM (inactive) |  | > 100 µM (inactive) | > 100 µM (inactive) | > 100 µM (inactive) |  | > 100 µM (inactive) | > 100 |  | > 100 µM (inactive)
